Laboratory results reported in patent US20160130259A1, “SUBSTITUTED BENZOFURAN COMPOUNDS AND METHODS OF USE THEREOF FOR THE TREATMENT OF VIRAL DISEASES” (priority 2013, published 2016).

How the values were obtained:
HCV replicon genotype 1a = test: HCV replicon assay, genotype 1a (cell ELISA for NS3/4A); format: cell-based; conditions: Hepatitis C virus, 96 h, read-out: 1a IC50 (nM)
Protocol: (§1) Measurement of inhibition by compounds was performed using the HCV replicon system. Several different replicons encoding different HCV genotypes or mutations were used. In addition, potency measurements were made using different formats of the replicon assay, including different ways of measurements and different plating formats. See Jan M. Vrolijk et al., A replicons-based bioassay for the measurement of interferons in patients with chronic hepatitis C, 110 J. Virological Methods 201 (2003); Steven S. Carroll et al., Inhibition of Hepatitis C Virus RNA Replication by 2′-Modified Nucleoside Analogs, 278(14) J. Biological Chemistry 11979 (2003). However, the underlying principles are common to all of these determinations, and are outlined below.
(§2) Stable neomycin phosphotransferase encoding replicons-harboring cell lines were used, so all cell lines were maintained under G418 selection prior to the assay. Potency was determined using a cell ELISA assay with an antibody to the replicons encoded NS3/4a protease. See Caterina Trozzi et al., In Vitro Selection and Characterization of Hepatitis C Virus Serine Protease Variants Resistant to an Active-Site Peptide Inhibitor, 77(6) J. Virol. 3669 (2003). To initiate an assay, replicon cells were plated in the presence of a dilution series of test compound in the absence of G418. Typically, the assays were performed in a 96-well plate formate for manual operation, or a 384-well plate format for automated assay. Replicon cells and compound were incubated for 96 hours. At the end of the assay, cells were washed free of media and compound, and the cells were then lysed. RNA was quantified indirectly through detection of replicon-encoded NS3/4A protein levels, through an ELISA-based assay with an antibody specific for NS3/4A. IC50 determinations were calculated as a percentage of a DMSO control by fitting the data to a four-parameter fit function and the data obtained is provided in the table below.
(§3) Data for selected compounds of the present invention was obtained for genotypes 1a and 1b using this method and is provided in the table below: […]

HCV replicon genotype 1b = test: HCV replicon assay, genotype 1b (cell ELISA for NS3/4A); format: cell-based; conditions: Hepatitis C virus, 96 h, read-out: 1b IC50 (nM)
Protocol: as §1, §2, §3

| Structure (SMILES) | IC50 (HCV replicon genotype 1a) [nM] | IC50 (HCV replicon genotype 1b) [nM] |
| --- | --- | --- |
| CNC(=O)c1c(-c2ccc(F)cc2)oc2cc(N(C)S(C)(=O)=O)c(-c3cn(C)c(=O)c(-c4cc5c(F)cccc5n4C)n3)cc12 [Compound 21, 5-(6-(4-fluoro-1-methyl-1H-indol-2-yl)-4-methyl-5-oxo-4,5-dihydropyrazin-2-yl)-2-(4-fluorophenyl)-N-methyl-6-(N-methylmethylsulfonamido)benzofuran-3-carboxamide] | 13.7 | 5.99 |
| CNC(=O)c1c(-c2ccc(F)cc2)oc2ccc(-n3cc(C(=O)N[C@H](CO)c4ccc(F)cc4)ncc3=O)cc12 [Compound 22, (S)-N-(1-(4-fluorophenyl)-2-hydroxyethyl)-4-(2-(4-fluorophenyl)-3-(methylcarbamoyl)benzofuran-5-yl)-5-oxo-4,5-dihydropyrazine-2-carboxamide] | 354 | 193 |
| CNC(=O)c1c(-c2ccc(F)cc2)oc2ccc(-n3cc(C(=O)NCc4ccc(F)cn4)ncc3=O)cc12 [Compound 23, 4-(2-(4-fluorophenyl)-3-(methylcarbamoyl)benzofuran-5-yl)-N-((5-fluoropyridin-2-yl)methyl)-5-oxo-4,5-dihydropyrazine-2-carboxamide] | 492 | 213 |
| CNC(=O)c1c(-c2ccc(F)cc2)oc2ccc(-n3cc(C(=O)NC4(c5ccc(F)cc5)CC4)ncc3=O)cc12 [Compound 24, 4-(2-(4-fluorophenyl)-3-(methylcarbamoyl)benzofuran-5-yl)-N-(1-(4-fluorophenyl)cyclopropyl)-5-oxo-4,5-dihydropyrdzine-2-carboxamide] | 80.8 | 35.5 |
| CNC(=O)c1c(-c2ccc(F)cc2)oc2ccc(-n3cc(C(=O)NC4(c5ccc6cnccc6n5)CC4)ncc3=O)cc12 [Compound 25, N-(1-(1,6-naphthyridin-2-yl)cyclopropyl)-4-(2-(4-fluorophenyl)-3-(methylcarbamoyl)benzofuran-5-yl)-5-oxo-4,5-dihydropyrazine-2-carboxamide] | 72.5 | 38.3 |
| CNC(=O)c1c(-c2ccc(F)cc2)oc2ccc(-n3cc(C(=O)NC4(c5ccccc5)CC4)ncc3=O)cc12 [Compound 26, 4-(2-(4-fluorophenyl)-3-(methylcarbamoyl)benzofuran-5-yl)-5-oxo-N-(1-phenylcyclopropyl)-4,5-dihydropyrazine-2-carboxamide] | 129 | 29.7 |
| CNC(=O)c1c(-c2ccc(F)cc2)oc2cc(N(C)S(C)(=O)=O)c(-c3cc(C(=O)N[C@H](C)c4ccc(F)cc4)c(=O)n(C)c3)cc12 [Compound 27, (R)-5-(2-(4-fluorophenyl)-3-(methylcarbamoyl)-6-(N-methylmethylsulfonamido)benzoturan-5-yl)-N-(1-(4-fluorophenyl)ethyl)-1-methyl-2-oxo-1,2-dihydropyridine-3-carboxamide] | 6.87 | 4.47 |
| CNC(=O)c1c(-c2ccc(F)cc2)oc2cc(N(C)S(C)(=O)=O)c(-c3cnc(=O)n(-c4ccc5ccccc5c4)c3)cc12 [Compound 28, 2-(4-fluorophenyl)-N-methyl-6-(N-methylmethylsulfonamido)-5-(1-(naphthalen-2-yl)-2-oxo-1,2-dihydropyrimidin-5-yl)benzofuran-3-carboxamide] | 116 | 18 |
| CNC(=O)c1c(-c2ccc(F)cc2)oc2cc(N(C)S(C)(=O)=O)c(-c3ccc(=O)n(-c4ccc(F)cc4)c3)cc12 [Compound 29, 2-(4-fluorophenyl)-5-(1-(4-fluorophenyl)-6-oxo-1,6-dihydropyridin-3-yl)-N-methyl-6-(N-methylmethylsulfonamido) benzofuran-3-carboxamide] | 110 | 31.8 |
| CNC(=O)c1c(-c2ccc(F)cc2)oc2cc(N(C)S(C)(=O)=O)c(-c3cc4n(c(=O)c3)CCn3c-4cc4c(F)cccc43)cc12 [Compound 30, 5-(12-fluoro-4-oxo-6,7-dihydro-4H-pyrido[2′,1′:3,4]pyrazino[1,2-a]indol-2-yl)-2-(4-fluorophenyl)-N-methyl-6-(N-methylmethylsulfonamido)benzofuran-3-carboxamide] | 3.52 | 19 |
| CNC(=O)c1c(-c2ccc(F)cc2)oc2cc(N(C)S(C)(=O)=O)c(-c3cc4n(c(=O)n3)CCn3c-4cc4c(F)cccc43)cc12 [Compound 31, 5-(12-fluoro-4-oxo-6,7-dihydro-4H-pyrimido[6′,1′:3,4]pyrazino[1,2-a]indol-2-yl)-2-(4-fluorophenyl)-N-methyl-6-(N-methylmethylsulfonamido)benzofuran-3-carboxamide] | 3.48 | 6.95 |
